Some test systems named below: DLD-1 colon; HOP-18 NSCLC; KM12 colon; LXFL 529 NSCLC; DMS 114 small cell lung; SNB-78 CNS; DU-145 prostate; MDA-MB-435; NCI/ADR-RES ovarian; T-47D breast.
Assay in all cases: growth of human tumour cells (NCI), 48 h

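A five-concentration, 48-hour dose response in 96-well plates underlies each endpoint, interpolated linearly between surrounding concentrations. Here, GI50 denotes the concentration required for 50% inhibition of growth. At the TGI there is no net growth.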 A value given as a limit tells only on which side of the number the result lay.

This passage reports TGI and GI50 results from PubChem BioAssay (NCI).

For the compound `CCCCCCCCCOC(=S)NC`, the TGI is 34.9 µM with DLD-1 colon, 44.2 µM in the experiment with HOP-18 NSCLC, 57 µM in the experiment on KM12 colon and 34.8 µM in the experiment on LXFL 529 NSCLC.

Consider `c1cncc(C2c3[nH]c4ccccc4c3CCN2CCCN2CCCCC2)c1` (stereo not drawn), for which the TGI in the experiment on DLD-1 colon, in the experiment with DMS 114 small cell lung, with KM12 colon, in the experiment with LXFL 529 NSCLC and in the experiment with SNB-78 CNS was more than 100 µM in each case.

As for `Cc1cc(C)c(C(=O)O)c(N)c1O`, the TGI in the experiment with DLD-1 colon, in the experiment with DMS 114 small cell lung, in the experiment on KM12 colon and in the experiment with LXFL 529 NSCLC was more than 100 µM each time.

For the compound `CCOC(=O)/C(=C/c1ccc(OC)c(OC)c1)C(=O)c1ccccc1`, the TGI in the experiment with DLD-1 colon came to 34.5 µM; in the experiment on DMS 114 small cell lung it was 32 µM; in the experiment on KM12 colon it was 31.5 µM; with LXFL 529 NSCLC, 25.3 µM; with SNB-78 CNS, 56.3 µM.

In the case of `OCCN1CCN(CCO)Cc2ccccc2OCCOc2ccccc2C1`, the TGI in the experiment with DLD-1 colon, with DMS 114 small cell lung, with KM12 colon, in the experiment with LXFL 529 NSCLC and in the experiment with SNB-78 CNS was more than 100 µM each time.

Take `CSc1nc(NC2OCC(OC(C)=O)C(OC(C)=O)C2OC(C)=O)c(N=CC=Nc2c(NC3OCC(OC(C)=O)C(OC(C)=O)C3OC(C)=O)nc(SC)n(C)c2=O)c(=O)n1C` (stereo not drawn): the TGI in the experiment on DLD-1 colon, with DMS 114 small cell lung, in the experiment on HOP-18 NSCLC, in the experiment with KM12 colon and in the experiment with LXFL 529 NSCLC was more than 100 µM throughout.

Consider `C=C(C)C1CC=C(C(=O)O)CC1` (stereo not drawn), for which the TGI with DLD-1 colon is more than 5000 µM; in the experiment on DMS 114 small cell lung, more than 5000 µM; with KM12 colon it was 2140 µM; with LXFL 529 NSCLC it was more than 5000 µM.

With `CC1(C)CCC(=O)c2c(O)ccc(O)c21`, the TGI in the experiment with KM12 colon, in the experiment with LXFL 529 NSCLC and in the experiment with SNB-78 CNS was more than 100 µM in each case.

In the case of `COc1ccc2cc(C(=O)c3ccccc3C(=O)O)ccc2c1`, the TGI with DLD-1 colon, in the experiment with DMS 114 small cell lung, in the experiment with HOP-18 NSCLC, in the experiment with KM12 colon and in the experiment on LXFL 529 NSCLC was more than 100 µM in each case.

For `CCC[CH2][Sn]1([CH2]CCC)[O]C(c2ccccn2)S(=O)(=O)[O]1` (stereo not drawn), the GI50 in the experiment on DLD-1 colon was 3.31 µM; in the experiment on KM12 colon it was 12.7 µM; in the experiment with LXFL 529 NSCLC, 1.54 µM; with SNB-78 CNS, 1.6 µM. Besides, the TGI in the experiment on DLD-1 colon came out at 12.7 µM; in the experiment on KM12 colon, 26 µM; in the experiment with LXFL 529 NSCLC, 2.92 µM; with SNB-78 CNS, 5.86 µM.

Turning to `CCN1C(C)=NC2C(=O)c3ccccc3C(=O)C21` (stereo not drawn), the TGI in the experiment on DMS 114 small cell lung and with LXFL 529 NSCLC was more than 100 µM throughout.

Turning to `COc1cc(N2CCC(N3CCN(C)CC3)CC2)ccc1Nc1ncc(Cl)c(Nc2ccccc2P(C)(C)=O)n1`, the GI50 in the experiment with DU-145 prostate is 0.933 µM; in the experiment on KM12 colon it was 2.69 µM; in the experiment with MDA-MB-435 it was 2.94 µM; in the experiment on NCI/ADR-RES ovarian, 3 µM; in the experiment with T-47D breast, more than 100 µM. The TGI in the experiment on DU-145 prostate was 20.5 µM; in the experiment on KM12 colon, more than 100 µM; in the experiment on MDA-MB-435 it was more than 100 µM; in the experiment on T-47D breast, more than 100 µM.

With `[N-]=[N+]=NC1(N=[N+]=[N-])C(=O)NN=C(c2ccccc2)C1=O` (stereo not drawn), the TGI was more than 100 µM in the experiment with DU-145 prostate; more than 100 µM with KM12 colon; 42.6 µM in the experiment with MDA-MB-435; more than 100 µM in the experiment on NCI/ADR-RES ovarian; 94.3 µM in the experiment with T-47D breast.

As to `CCc1ccccc1NC(=O)/C(CC(=O)c1c(C)n([O-])c2ccccc2[n+]1=O)=N\NS(=O)(=O)c1ccc(C)cc1`, the TGI in the experiment on DLD-1 colon is more than 100 µM; in the experiment on DMS 114 small cell lung it was 30.3 µM; in the experiment on KM12 colon it was more than 100 µM; in the experiment on LXFL 529 NSCLC, more than 100 µM; in the experiment on SNB-78 CNS, more than 100 µM.

With `CCCCCCCC1c2cc3[nH]c(cc4nc(cc5[nH]c(cc(n2)[C@@]1(C)CC(=O)N(C)C)c(C)c5CCC(=O)O)C(CCC(=O)O)=C4C)cc3C` (stereo partly drawn), the TGI was 57 µM in the experiment with DU-145 prostate; 58.5 µM in the experiment on KM12 colon; 92.5 µM with MDA-MB-435; 43.1 µM with NCI/ADR-RES ovarian; more than 100 µM in the experiment with T-47D breast.

For the compound `C/C(=N\O)c1sc(-n2nc(-c3ccccc3)cc2-c2ccccc2)nc1C`, the TGI was 20.1 µM in the experiment on DLD-1 colon; 22.8 µM in the experiment with DMS 114 small cell lung; 17.3 µM in the experiment on KM12 colon; 16.3 µM in the experiment with LXFL 529 NSCLC; more than 100 µM in the experiment with SNB-78 CNS.

For `CCOC(=O)C12CCCC1(O)N(NC(=O)c1cccc(Cl)c1)C(C)=C2C(=O)OC` (stereo not drawn), the TGI with DLD-1 colon, with DMS 114 small cell lung, in the experiment on KM12 colon and in the experiment on LXFL 529 NSCLC was more than 100 µM throughout.

For `O=C1C(=O)c2cc([N+](=O)[O-])ccc2-c2ccccc21`, the GI50 is 1.74 µM in the experiment with DU-145 prostate; 1.79 µM in the experiment with KM12 colon; 0.402 µM in the experiment on MDA-MB-435; 1.66 µM with NCI/ADR-RES ovarian; 1.76 µM with T-47D breast. Besides, the TGI with DU-145 prostate turned out to be 3.16 µM; with KM12 colon, 3.23 µM; in the experiment on MDA-MB-435 it was 1.53 µM; in the experiment with NCI/ADR-RES ovarian, 3.33 µM; in the experiment with T-47D breast it was 3.77 µM.

For the compound `Cc1cc(Cl)ccc1Nc1sc(C(=O)c2cc3cc(Cl)ccc3o2)c(N)c1C#N`, the TGI with DU-145 prostate is more than 100 µM; in the experiment with KM12 colon, more than 100 µM; in the experiment with MDA-MB-435, more than 100 µM; in the experiment with NCI/ADR-RES ovarian it was more than 23.5 µM; with T-47D breast it was more than 100 µM.

On to `Cc1cc(NC(=O)c2ccc(NS(=O)(=O)CCO)cc2N2CCC3(CC2)CC3)nc(N2CCC(F)(F)CC2)n1`, for which the GI50 is 0.0531 µM in the experiment with DU-145 prostate; 1.7 µM in the experiment with KM12 colon; 0.903 µM with MDA-MB-435; 0.428 µM in the experiment with NCI/ADR-RES ovarian; 12.5 µM in the experiment on T-47D breast. Besides, the TGI in the experiment on DU-145 prostate was found to be 15.8 µM; in the experiment with KM12 colon it was 16.9 µM; with MDA-MB-435 it was 18.5 µM; in the experiment with NCI/ADR-RES ovarian, 16.1 µM; in the experiment on T-47D breast, 31.8 µM.

Regarding `Nc1ncc(-c2cnn(C3CCNCC3)c2)cc1-c1nc2ccccc2o1`, the GI50 is 1.75 µM in the experiment on DU-145 prostate; 0.0812 µM in the experiment on KM12 colon; 1.21 µM in the experiment with MDA-MB-435; 3.47 µM in the experiment on NCI/ADR-RES ovarian; 1.67 µM in the experiment with T-47D breast. For the same compound, the TGI in the experiment with DU-145 prostate amounted to 8.86 µM; in the experiment on KM12 colon, 1.45 µM; in the experiment with MDA-MB-435, 2.62 µM; with NCI/ADR-RES ovarian, 13.4 µM; in the experiment with T-47D breast, 4.88 µM.
